The values that follow come from US7629318B2, “Immunosuppressant compounds, methods and uses related thereto” (priority 2002, dated 2009).

Series [1] has as its target Cathepsin B1 (EC 3.4.22.1 from bovine spleen) (Bos taurus, UniProt P07688). The note with it: for Stability (Arbitrary units) Cath B 4 h: Cathepsin B.
Series [2] in a line: Stability of compounds in mouse blood plasma. The class given is in vitro ADME. Here is the method: (§1) The stability of the peptidomimetic compounds was determined in rat (Charles River Laboratories, Sulzfeld), mouse (Charles River Laboratories, Sulzfeld) and human (Bayerisches Rotes Kreuz, München) blood plasma (E. R. Garrett and M. R. Gardner, J Pharmaceutical Sciences 71 (1982) 14-25).
(§2) Compound stock solutions were diluted into blood plasma to give a final compound concentration of 5 μM and the mixtures were incubated at 37° C. At 0, 6 and 24 hours 1 ml samples were drawn and the plasma proteins were precipitated by the addition of 3 ml acetonitrile p.a. and whirlmixing. The precipitate was pelleted by centrifugation at 2000 g for 5 minutes. The supernatant was evaporated off to dryness and the residue was reconstituted in 400 μl 50% acetonitrile, 0.1% TFA in water.
(§3) PBS controls were prepared for unstable compounds accordingly.

The target in series [3] is DR4Dw4 (DRA1*0101 DRB1*0401) (Homo sapiens, UniProt P01903+P01911, A100K/A169T/F76Y/I96L/K127E/L162R/M171V/N62H/P40V/Q125Y/R42H/S133A/S149N/S66Y/V115G/V209L/W38E). Kind of series: Competitive binding to MHC-II protein DR4Dw4. As for the experimental part: (§4) Interaction mixtures lacking the peptidomimetic compound and both peptide mimetic compound and MHC-II were used as positive and negative controls, respectively. All interaction mixtures were set up in duplicates and were incubated for 16 hours at room temperature.
(§5) After washing with PBS, 60 μl of the MHC-II-compound interaction mixtures were transferred from the interaction plate to the appropriate wells of the capture plate and incubated for 2 h at 4° C. The wells were washed six times with 200 μl/well of cooled (4 to 8° C.) 1×DELFIA wash (Wallac-ADL-GmbH, Freiburg), incubated with 100 μl of cooled Europium-streptavidin conjugate (Wallac-ADL-GmbH, Freiburg; diluted 1/1000 with DELFIA assay buffer) for 30 minutes at 4° C., again washed six times with cooled 1×DELFIA wash and, finally, incubated with 200 μl cooled DELFIA enhancement solution (Wallac-ADL-GmbH, Freiburg) for one hour at room temperature before reading the time-resolved europium fluorescence at λex Eu^3+: 340 nm and λem Eu^3+: 613 (615) nm (Wallac Victor^2 1420 Multilabel Counter, Wallac-ADL-GmbH, Freiburg).

The target of series [4] is DR1 (DRA1*0101 DRB1*0101) (Homo sapiens, UniProt P01903+P01911, A100R/D57E/F55L/F60I/F76Y/I96L/L162R/M171V/P40L/Q125E/R42F/V115G/Y59C). Kind of series: Competitive binding to MHC-II protein DR1. Conditions: Protein binding IC50 (nM) 0101, 0101. Here is the method: as §4, §5
Series [5] can be described thus: Stability of compounds in human blood plasma. The format is in vitro ADME. As for the experimental part: as §1, §2, §3
Series [6] deals with Cathepsin D (EC 3.4.23.5 from bovine spleen) (Bos taurus, UniProt P80209). As for the experimental part:
The stability of the peptidomimetic compounds towards lysosomal degradation was examined by incubation with Cathepsin B1 (EC 3.4.22.1 from bovine spleen; Sigma-Aldrich, Taufkirchen; dissolved at 10000 U/l in ddH2O) and D (EC 3.4.23.5 from bovine spleen; Sigma-Aldrich, Taufkirchen; dissolved at 10000 U/l in ddH2O) for four hours at 37° C. using a compound concentration of 50 μM and an enzyme/substrate ratio of 0.4 U/μmol. The samples contained 25 ppm 4-isopropyl benzyl alcohol (IPBA; Sigma-Aldrich, Taufkirchen) as internal standard.
Assay buffer was prepared by adding 35 μl of a 1% IPBA in DMSO solution and 28 μl of a 10000 U/l Cathepsin B1 or Cathepsin D stock solution to 14 ml of 100 mM sodium acetate, 1 mM EDTA, 1 mM DTT, pH 5.00 or 100 mM sodium acetate, pH 4.50, respectively. 8.8 μl of a 5 mM (or 4.4 μl of a 10 mM) compound stock solution (in 10% DMSO/water) were placed into a 1.5 ml Eppendorf tube. The reaction was started by adding 875 μl fully supplemented assay buffer to each tube, whirlmixing and incubation at 37° C. At 0 and 4 hours 400 μl samples were taken and the enzyme was inactivated by addition of 40 μl […] TFA aq. The samples were kept frozen at −20° C. until analysis by RP-HPLC (200 μl injection volume; Nucleosil 100-5 C18, 12.5×4.6 cm; Gradient: 20-50% acetonitrile in 30 min).
Compounds co-eluting with the internal standard during RP-HPLC analysis were tested without the standard as Example 16.

A short description of series [7]: Stability of compounds in rat blood plasma. The format is in vitro ADME. As for the experimental part:
as §1, §2, §3

Series [8] deals with DR4Dw14 (DRA1*0101 DRB1*0404) (Homo sapiens, UniProt P01903+P01911, A100R/A169T/F76Y/I96L/K127E/L162R/M171V/N62H/P40V/Q125Y/R42H/S133A/S149N/S66Y/V209L/W38E). Kind of series: Competitive binding to MHC-II protein DR4Dw14. Here is the method:
as §4, §5

Series [9] concerns T-cell proliferation, DR14-LN.
The mark [10] stands for this setting: within 4 hours, 37° C., enzyme activity control.
The mark [11] stands for this setting: 0404, read-out: Protein binding IC50 (nM) 0404.

By IC50 is commonly meant the midpoint of a concentration-inhibition curve.

Several values for one entry are separate records, joined by “and”; a condition that tells them apart may be missing. Equal values may be shown once. Read-outs that look alike come from different tables or passages of the source. Square brackets hold non-standard residues; d marks the D form. Peptide text beside a SMILES is read from it. * marks the point of attachment. N(Me)CH2CH2Ph = CN(CCc1ccccc1)*; Tic = O=C(O)[C@@H]1Cc2ccccc2CN1; Cha = N[C@@H](CC1CCCCC1)C(=O)O; X4 = OCCOCCN(CCc1ccccc1)*; Nle = CCCC[C@H](N)C(=O)O; X2 = OCCOCCN(Cc1ccccc1)*; X6 = OCCN(CCc1ccccc1)*

On to `CSCC[C@H](NC(=O)[C@H](C)NC(=O)[C@H](CCCN=C(N)N)NC(=O)[C@H](CC1CCCCC1)NC(C)=O)C(=O)N[C@@H](C)C(=O)N[C@@H](CO)C(=O)N[C@@H](CC(C)C)C(N)=O` [Compound P3, Ac-Cha-RAMASL-NH2, reference compound] (Ac-[Cha]RAMASL-NH2), for which the “degradation by Cathepsin B1” value in series [1] (setting [10]) is given as “completely degraded”.

Take `CCCC[C@H](NC(=O)[C@@H]1Cc2ccccc2CN1C(=O)[C@H](CCCNC(=N)N)NC(=O)[C@H](CC1CCCCC1)NC(C)=O)C(=O)N(CCO)CCc1ccccc1` [Compound P81, Ac-Cha-Arg-Tic-Nle-N(CH2CH2OH)CH2CH2Ph] (Ac-[Cha]R[Tic][Nle]-X6): in [1], the “Stability (Arbitrary units) Cath B 4 h” value is 99 Arbitrary units. In series [2], the “Stability (Arbitrary units) Mouse 6 h” value came out at 107 Arbitrary units and the “Stability (Arbitrary units) Mouse 24 h” value is recorded as 70 Arbitrary units. Moreover, in series [3], the IC50 stood at 22 µM. In [4], this compound returned a 50% inhibitory concentration (IC50) of 3300 nM. Moreover, in [5], the “Stability (Arbitrary units) Human 6 h” value is reported as 104 Arbitrary units and the “Stability (Arbitrary units) Human 24 h” value stood at 109 Arbitrary units. Moreover, the “Stability (Arbitrary units) Cath D 4 h” value in series [6] is recorded as 99 Arbitrary units. In series [7], the “Stability (Arbitrary units) Rat 6 h” value stood at 88 Arbitrary units and the “Stability (Arbitrary units) Rat 24 h” value stood at 76 Arbitrary units. Also, the IC50 in series [8] (setting [11]) worked out at 20000 nM.

As to `CSCC[C@H](NC(=O)[C@@H]1Cc2ccccc2CN1C(=O)[C@H](CCCNC(=N)N)NC(=O)[C@H](CC1CCCCC1)NC(C)=O)C(=O)N(C)CCc1ccccc1` [Compound P84, Ac-Cha-Arg-Tic-Met-N(Me)CH2CH2Ph] (Ac-[Cha]R[Tic]M-{N(Me)CH2CH2Ph}), the “Stability (Arbitrary units) Cath B 4 h” value in [1] is given as 69 Arbitrary units. Also, in [2], the “Stability (Arbitrary units) Mouse 6 h” value is recorded as 111 Arbitrary units and the “Stability (Arbitrary units) Mouse 24 h” value is reported as 53 Arbitrary units. In series [4], the IC50 was found to be 900 nM. Besides, in series [5], the “Stability (Arbitrary units) Human 6 h” value came to 131 Arbitrary units and the “Stability (Arbitrary units) Human 24 h” value came to 131 Arbitrary units. Besides, the “Stability (Arbitrary units) Cath D 4 h” value in series [6] is listed as 101 Arbitrary units. Further, in series [7], the “Stability (Arbitrary units) Rat 6 h” value came to 104 Arbitrary units and the “Stability (Arbitrary units) Rat 24 h” value came to 99 Arbitrary units. The IC50 in [8] (setting [11]) is 14000 nM.

Take `CSCC[C@H](NC(=O)[C@@H]1Cc2ccccc2CN1C(=O)[C@H](CCCNC(=N)N)NC(=O)[C@H](CC1CCCCC1)NC(C)=O)C(=O)N(CCO)CCc1ccccc1` [Compound P85, Ac-Cha-Arg-Tic-Met-N(CH2CH2OH)CH2CH2Ph] (Ac-[Cha]R[Tic]M-X6): the “Stability (Arbitrary units) Cath B 4 h” value in series [1] stood at 108 Arbitrary units. For the same compound, in series [2], the “Stability (Arbitrary units) Mouse 6 h” value was 98 Arbitrary units. Also, the “Stability (Arbitrary units) Mouse 24 h” value in [2] turned out to be 57 Arbitrary units. The IC50 in series [3] is 13 µM; in [4], 1800 nM; in series [8] (setting [11]), 31000 nM. For the same compound, the “Stability (Arbitrary units) Human 24 h” value in series [5] is listed as 129 Arbitrary units. For the same compound, the “Stability (Arbitrary units) Cath D 4 h” value in series [6] is 104 Arbitrary units. Further, the “Stability (Arbitrary units) Rat 6 h” value in [7] is listed as 111 Arbitrary units. For the same compound, the “Stability (Arbitrary units) Rat 24 h” value in series [7] stood at 71 Arbitrary units.

As for `CSCC[C@H](NC(=O)[C@@H]1Cc2ccccc2CN1C(=O)[C@H](CCCNC(=N)N)NC(=O)[C@H](CC1CCCCC1)NC(C)=O)C(=O)N(CCOCCO)CCc1ccccc1` [Compound P96, Ac-Cha-Arg-Tic-Met-N(CH2CH2Ph)CH2CH2OCH2CH2OH] (Ac-[Cha]R[Tic]M-X4), in series [1], the “Stability (Arbitrary units) Cath B 4 h” value is on record as 91 Arbitrary units. Moreover, the “Stability (Arbitrary units) Mouse 6 h” value in series [2] (mouse plasma, 6 h) was 108 Arbitrary units. In addition, the “Stability (Arbitrary units) Mouse 24 h” value in series [2] (mouse plasma, 24 h) is reported as 82 Arbitrary units. The IC50 was found to be 5.9 µM in series [3]; 1000 nM in series [4]; 7400 nM in series [8] (Protein binding IC50 (nM) 0404, 0404). In addition, the “Stability (Arbitrary units) Human 6 h” value in series [5] (human plasma, 6 h) stood at 117 Arbitrary units. Besides, in series [5] (human plasma, 24 h), the “Stability (Arbitrary units) Human 24 h” value stood at 64 Arbitrary units. Moreover, the “Stability (Arbitrary units) Cath D 4 h” value in [6] was found to be 106 Arbitrary units. In series [7] (rat plasma, 6 h), the “Stability (Arbitrary units) Rat 6 h” value turned out to be 83 Arbitrary units. Also, the “Stability (Arbitrary units) Rat 24 h” value in series [7] (rat plasma, 24 h) was 45 Arbitrary units.

Regarding `CSCC[C@H](NC(=O)[C@@H]1Cc2ccccc2CN1C(=O)[C@H](CCCNC(=N)N)NC(=O)[C@H](CC1CCCCC1)NC(C)=O)C(=O)N(CCOCCO)Cc1ccccc1` [Compound P99, Ac-Cha-Arg-Tic-Met-N(Bn)CH2CH2OCH2CH2OH] (Ac-[Cha]R[Tic]M-X2), the “Stability (Arbitrary units) Cath B 4 h” value in [1] was found to be 106 Arbitrary units. Also, in series [2], the “Stability (Arbitrary units) Mouse 6 h” value came to 71 Arbitrary units. For the same compound, in [2], the “Stability (Arbitrary units) Mouse 24 h” value is listed as 13 Arbitrary units. Besides, the concentration for half-maximal inhibition (IC50) in [4] is 690 nM and 560 nM; in [9] (read-out: Immunsupressive assays DR14-LN (IC50)), 105 µM; in series [8] (setting [11]), 1900 nM. Moreover, in [5], the “Stability (Arbitrary units) Human 6 h” value was determined as 104 Arbitrary units. Moreover, the “Stability (Arbitrary units) Cath D 4 h” value in [6] was found to be 107 Arbitrary units. Also, in series [9] (maximal inhibition), the “Immunsupressive assays DR14-LN (Max) % Inhibition” value amounted to 100%. For the same compound, the “Stability (Arbitrary units) Rat 6 h” value in series [7] is 80 Arbitrary units. Also, the “Stability (Arbitrary units) Rat 24 h” value in series [7] came out at 62 Arbitrary units.

For `CC[C@H](C)[C@H](NC(=O)CNC(=O)[C@@H](NC(=O)[C@H](Cc1ccccc1)NC(=O)[C@H](CC(C)C)NC(=O)[C@H](CO)NC(=O)[C@H](CC(N)=O)NC(=O)[C@H](C)NC(=O)[C@H](CCCCN)NC(=O)[C@@H](NC(=O)[C@H](Cc1ccc(O)cc1)NC(=O)[C@@H](N)CCC(N)=O)[C@@H](C)CC)[C@@H](C)CC)C(=O)N[C@H](C(=O)N[C@@H](CCC(=O)O)C(=O)N[C@@H](CC(C)C)C(=O)N[C@@H](CCCCN)C(=O)O)[C@@H](C)O` [reference compound] (H-QYIKANSLFIGITELK-OH; N-terminus and C-terminus assumed), in series [6] (setting [10]), the “degradation by Cathepsin D” value was “completely degraded”.
